Source: ChEMBL document CHEMBL1138828, “A bivalent ligand (KDN-21) reveals spinal delta and kappa opioid receptors are organized as heterodimers that give rise to delta(1) and kappa(2) phenotypes. Selective targeting of delta-kappa heterodimers” (J Med Chem, 2004)

Columns and labels:
[1] = tested on: Mus musculus; experiment: Antagonism of delta1 opioid agonist (DPDPE)-induced antinociception upon intrathecal administration in mice at a dose of 2.5 pmol; assay type: functional
[2] = tested on: Mus musculus; experiment: Antagonism of delta2 opioid agonist (deltorphin II)-induced antinociception upon intrathecal administration in mice at a dose of 2.5 pmol; assay type: functional
[3] = tested on: Mus musculus; experiment: Antagonism of kappa2 opioid agonist (bremazocine)-induced antinociception upon intrathecal administration in mice at a dose of 2.5 pmol; assay type: functional
[4] = target: T1, Opioid receptor (Mus musculus, UniProt P42866+P32300+P33534); experiment: Compound was tested for binding affinity on intact HEK cells using [3H]diprenorphine as radioligand co-expressed with delta and kappa opioid receptors; assay type: cell-based; conditions: hek293
[5] = target: T1, Opioid receptor; experiment: Compound was tested for binding affinity on intact HEK cells using [3H]diprenorphine as radioligand singly expressed with delta or kappa receptors.; assay type: cell-based; conditions: hek293
[6] = tested on: Mus musculus; experiment: Antagonism of delta1 opioid agonist (DPDPE)-induced antinociception upon intrathecal administration in mice at a dose of 25 pmol; assay type: functional
[7] = tested on: Mus musculus; experiment: Antagonism of delta2 opioid agonist (deltorphin II)-induced antinociception upon intrathecal administration in mice at a dose of 25 pmol; assay type: functional
[8] = tested on: Mus musculus; experiment: Antagonism of kappa1 opioid agonist (U-50,488)-induced antinociception upon intrathecal administration in mice at a dose of 25 pmol; assay type: functional
[9] = tested on: Mus musculus; experiment: Antagonism of kappa2 opioid agonist (bremazocine)-induced antinociception upon intrathecal administration in mice at a dose of 25 pmol; assay type: functional
[10] = tested on: Mus musculus; experiment: Antagonism of delta1 opioid agonist (DPDPE)-induced antinociception upon intrathecal administration in mice at a dose of 50 pmol; assay type: functional
[11] = tested on: Mus musculus; experiment: Antagonism of kappa2 opioid agonist (bremazocine)-induced antinociception upon intrathecal administration in mice at a dose of 50 pmol; assay type: functional
[12] = tested on: Mus musculus; experiment: Antagonism of delta2 opioid agonist (deltorphin II)-induced antinociception upon intrathecal administration in mice at a dose of 50 pmol; assay type: functional
[13] = tested on: Mus musculus; experiment: Antagonism of kappa1 opioid agonist (U-50,488)-induced antinociception upon intrathecal administration in mice at a dose of 50 pmol; assay type: functional
[14] = tested on: Mus musculus; experiment: Antagonism of delta1 opioid agonist (DPDPE)-induced antinociception upon intrathecal administration in mice at a dose of 30 pmol; assay type: functional
[15] = tested on: Mus musculus; experiment: Antagonism of delta2 opioid agonist (deltorphin II)-induced antinociception upon intrathecal administration in mice at a dose of 30 pmol; assay type: functional
[16] = tested on: Mus musculus; experiment: Antagonism of kappa2 opioid agonist (bremazocine)-induced antinociception upon intrathecal administration in mice at a dose of 30 pmol; assay type: functional
[17] = target: T1, Opioid receptor; experiment: Compound was tested for binding affinity on intact HEK cells using [3H]diprenorphine as radioligand singly expressed with delta or kappa receptor; assay type: cell-based, Homo sapiens; conditions: hek293
[18] = target: T1, Opioid receptor; experiment: Compound was tested for binding affinity on intact HEK cells using [3H]diprenorphine as radioligand co-expressed with delta and kappa opioid receptor; assay type: cell-based; conditions: hek293
[19] = tested on: Mus musculus; experiment: Antagonism of delta1 opioid agonist (DPDPE)-induced antinociception upon intrathecal administration in mice at a dose of 1.0 pmol; assay type: functional
[20] = tested on: Mus musculus; experiment: Antagonism of delta2 opioid agonist (deltorphin II)-induced antinociception upon intrathecal administration in mice at a dose of 1.0 pmol; assay type: functional
[21] = tested on: Mus musculus; experiment: Antagonism of kappa2 opioid agonist (bremazocine)-induced antinociception upon intrathecal administration in mice at a dose of 1.0 pmol; assay type: functional
[22] = tested on: Mus musculus; experiment: Antagonism of kappa1 opioid agonist (U-50,488)-induced antinociception upon intrathecal administration in mice at a dose of 2.5 pmol; assay type: functional
[23] = tested on: Mus musculus; experiment: Antagonism of kappa1 opioid agonist (U-50,488)-induced antinociception upon intrathecal administration in mice at a dose of 30 pmol; assay type: functional
[24] = tested on: Mus musculus; experiment: Antagonism of delta1 opioid agonist (DPDPE)-induced antinociception upon intrathecal administration in mice at a dose of 250 pmol; assay type: functional
[25] = tested on: Mus musculus; experiment: Antagonism of delta2 opioid agonist (deltorphin II)-induced antinociception upon intrathecal administration in mice at a dose of 250 pmol; assay type: functional
[26] = tested on: Mus musculus; experiment: Antagonism of kappa1 opioid agonist (U-50,488)-induced antinociception upon intrathecal administration in mice at a dose of 250 pmol; assay type: functional
[27] = tested on: Mus musculus; experiment: Antagonism of kappa2 opioid agonist (bremazocine)-induced antinociception upon intrathecal administration in mice at a dose of 250 pmol; assay type: functional

Question: Which ED50 [1] does the source give for `NC(=NCCNC(=O)CNC(=O)CNC(=O)CCC(=O)NCC(=O)NCC(=O)Nc1cccc2c3c([nH]c12)[C@@H]1Oc2c(O)ccc4c2C12CCN(CC1CC1)C(C4)[C@]2(O)C3)Nc1ccc2[nH]c3c(c2c1)C[C@@]1(O)C2Cc4ccc(O)c5c4C1(CCN2CC1CC1)[C@H]3O5` (some centres undefined) here?
Answer: Its ED50 is 3.4 nM mouse-1.

Question: What about the ED50 [2] of the same compound?
Answer: The ED50 was 1.1 nM mouse-1.

Question: And the ED50 [3]?
Answer: The ED50 was 1.7 nM mouse-1.

Question: And the Ki [4]?
Answer: The Ki was 0.5 nM.

Question: What about the Ki [5] of the same compound?
Answer: Its Ki is 58.8 nM.

Question: Which ED50 [6] does the source give for `O=C1/C(=C/c2ccccc2)C[C@@]2(O)[C@H]3Cc4ccc(O)c5c4[C@@]2(CCN3CC2CC2)[C@H]1O5` [BNTX] here?
Answer: The ED50 was 10.6 nM mouse-1.

Question: What about the ED50 [7] of the same compound?
Answer: The ED50 was 1 nM mouse-1.

Question: What about the ED50 [8] of the same compound?
Answer: The ED50 was 0.9 nM mouse-1.

Question: What about the ED50 [9] of the same compound?
Answer: The ED50 was 49.8 nM mouse-1.

Question: How did the ED50 [10] turn out when `Oc1ccc2c3c1O[C@H]1c4oc5ccccc5c4C[C@@]4(O)[C@@H](C2)N(CC2CC2)CC[C@]314` [NALTRIBEN] was run?
Answer: The ED50 was 1 nM mouse-1.

Question: And the ED50 [11]?
Answer: The ED50 was 5.8 nM mouse-1.

Question: What about the ED50 [12] of the same compound?
Answer: The ED50 was 9.1 nM mouse-1.

Question: What about the ED50 [13] of the same compound?
Answer: Its ED50 is 0.8 nM mouse-1.

Question: Which results are given for `N/C(=N\CCCNC(=O)CNC(=O)CNC(=O)CCC(=O)NCC(=O)NCC(=O)Nc1ccc2[nH]c3c(c2c1)C[C@]1(O)C2Cc4ccc(O)c5c4C1(CCN2CC1CC1)[C@@H]3O5)Nc1ccc2[nH]c3c(c2c1)C[C@]1(O)C2Cc4ccc(O)c5c4C1(CCN2CC1CC1)[C@@H]3O5` (some centres undefined)?
Answer: ED50 [14]: 1.1 nM mouse-1; ED50 [15]: 1 nM mouse-1; ED50 [16]: 14.5 nM mouse-1; Ki [4]: > 1000 nM; Ki [17]: 54.8 nM

Question: For `N/C(=N\CCCCCNC(=O)CNC(=O)CNC(=O)CCC(=O)NCC(=O)NCC(=O)Nc1cccc2c3c([nH]c12)[C@@H]1Oc2c(O)ccc4c2C12CCN(CC1CC1)C(C4)[C@]2(O)C3)Nc1ccc2[nH]c3c(c2c1)C[C@@]1(O)C2Cc4ccc(O)c5c4C1(CCN2CC1CC1)[C@H]3O5` (some centres undefined), which ED50 [1] is on record?
Answer: The ED50 was 2.2 nM mouse-1.

Question: And the ED50 [2]?
Answer: Its ED50 is 2.1 nM mouse-1.

Question: What about the ED50 [3] of the same compound?
Answer: The ED50 was 4.1 nM mouse-1.

Question: What about the Ki [18] of the same compound?
Answer: Its Ki is 4.8 nM.

Question: What about the Ki [17] of the same compound?
Answer: The Ki was 3.3 nM.

Question: For `N/C(=N\CCCNC(=O)CNC(=O)CCC(=O)NCC(=O)Nc1cccc2c3c([nH]c12)[C@@H]1Oc2c(O)ccc4c2[C@@]12CCN(CC1CC1)[C@H](C4)[C@]2(O)C3)Nc1ccc2[nH]c3c(c2c1)C[C@@]1(O)[C@H]2Cc4ccc(O)c5c4[C@@]1(CCN2CC1CC1)[C@H]3O5`, which ED50 [19] is on record?
Answer: The ED50 was 2 nM mouse-1.

Question: What about the ED50 [20] of the same compound?
Answer: The ED50 was 1.9 nM mouse-1.

Question: What about the ED50 [21] of the same compound?
Answer: The ED50 was 2.5 nM mouse-1.

Question: And the Ki [4]?
Answer: The Ki was 315 nM.

Question: And the Ki [5]?
Answer: The Ki was 6.3 nM.

Question: How did the ED50 [1] turn out when `NC(=NCCCCNC(=O)CNC(=O)CNC(=O)CCC(=O)NCC(=O)NCC(=O)Nc1cccc2c3c([nH]c12)[C@@H]1Oc2c(O)ccc4c2C12CCN(CC1CC1)C(C4)[C@]2(O)C3)Nc1ccc2[nH]c3c(c2c1)C[C@@]1(O)C2Cc4ccc(O)c5c4C1(CCN2CC1CC1)[C@H]3O5` (some centres undefined) was run?
Answer: The ED50 was 6.3 nM mouse-1.

Question: What about the ED50 [2] of the same compound?
Answer: Its ED50 is 2.2 nM mouse-1.

Question: And the ED50 [22]?
Answer: The ED50 was 0.6 nM mouse-1.

Question: What about the ED50 [3] of the same compound?
Answer: Its ED50 is 1.7 nM mouse-1.

Question: What about the Ki [4] of the same compound?
Answer: Its Ki is 1.4 nM.

Question: And the Ki [17]?
Answer: Its Ki is 1.1 nM.

Question: Which ED50 [14] does the source give for `N/C(=N\CCCNC(=O)CNC(=O)CNC(=O)CCC(=O)NCC(=O)NCC(=O)Nc1cccc2c3c([nH]c12)[C@@H]1Oc2c(O)ccc4c2C12CCN(CC1CC1)C(C4)[C@]2(O)C3)Nc1ccc2[nH]c3c(c2c1)C[C@@]1(O)C2Cc4ccc(O)c5c4C1(CCN2CC1CC1)[C@H]3O5` (some centres undefined) here?
Answer: The ED50 was 8 nM mouse-1.

Question: What about the ED50 [15] of the same compound?
Answer: The ED50 was 1.2 nM mouse-1.

Question: What about the ED50 [23] of the same compound?
Answer: Its ED50 is 1.9 nM mouse-1.

Question: What about the ED50 [16] of the same compound?
Answer: The ED50 was 50.4 nM mouse-1.

Question: What about the Ki [4] of the same compound?
Answer: The Ki was 0.3 nM.

Question: What about the Ki [5] of the same compound?
Answer: The Ki was 63 nM.

Question: With `Oc1ccc2c3c1O[C@H]1c4[nH]c5c(c4C[C@@]4(O)[C@@H](C2)N(CC2CC2)CC[C@]314)C[C@@]1(O)[C@H]2Cc3ccc(O)c4c3[C@@]1(CCN2CC1CC1)[C@H]5O4` [NORBINALTORPHIMINE] as the compound, how does the ED50 [24] read?
Answer: Its ED50 is 12.4 nM mouse-1.

Question: And the ED50 [25]?
Answer: Its ED50 is 1 nM mouse-1.

Question: And the ED50 [26]?
Answer: The ED50 was 5.3 nM mouse-1.

Question: And the ED50 [27]?
Answer: The ED50 was 129.5 nM mouse-1.

Question: With `O=C(CCC(=O)NCC(=O)NCC(=O)Nc1cccc2c3c([nH]c12)[C@@H]1Oc2c(O)ccc4c2C12CCN(CC1CC1)C(C4)[C@]2(O)C3)NCC(=O)NCC(=O)NCCCNC(=O)c1cccc2c3c([nH]c12)[C@@H]1Oc2c(O)ccc4c2C12CCN(CC1CC1)C(C4)[C@]2(O)C3` (some centres undefined) as the compound, how does the ED50 [6] read?
Answer: The ED50 was 1.1 nM mouse-1.

Question: And the ED50 [7]?
Answer: Its ED50 is 2.4 nM mouse-1.

Question: And the ED50 [9]?
Answer: Its ED50 is 2.4 nM mouse-1.

Question: What about the Ki [18] of the same compound?
Answer: The Ki was over 1000 nM.

Question: What about the Ki [17] of the same compound?
Answer: The Ki was 199 nM.
